Converted amounts (≈) assume the structure as drawn.
Tests used:
[1] = system: Staphylococcus epidermidis ATCC 12228; test: in vitro bacteriostatic activity, agar dilution MIC, quality control strain; format: cell-based; conditions: Staphylococcus epidermidis, ATCC12228
Staphylococcus aureus = test: in vitro bacteriostatic activity, agar dilution MIC, quality control strains; format: cell-based; conditions: Staphylococcus aureus, ATCC29213
Enterococcus faecalis = test: in vitro bacteriostatic activity, agar dilution MIC; format: cell-based; conditions: Enterococcus faecalis
Enterococcus faecium = test: as above; format: cell-based; conditions: Enterococcus faecium
[2] = system: Staphylococcus aureus MRSA; test: as above; format: cell-based
[3] = system: Methicillin-resistant Staphylococcus aureus ATCC 43300; test: in vivo protection of model mice infected with methicillin-resistant Staphylococcus aureus; set-up: species or system KM mice; conditions: 4×10^5 units/kg, intraperitoneal injection once a day, within 14 days
Procedure: Tested strains' virulence assay: Methicillin-resistant Staphylococcus aureus was cultured in incubator at 37°C to reach exponential phase of growth, and then diluted with normal saline to obtain different gradient concentrations of bacterial liquid. Different concentrations of bacterial liquid were taken and mixed with equivalent 10% gastric mucin. Bacterial liquid was administrated to mice at 0.5 ml/20 g by intraperitoneal injection, and 5% gastric mucin was used as control. Under a premise of no control mice death, the death rate of mice within 14 days was recorded, and the minimum bacterial volumes leading to death of whole mice were measured, i.e. the minimum lethal dose (MLD) of bacterial liquid.
Pretesting of effective dose in vivo: Infection model mice infected by Methicillin-resistant Staphylococcus aureus were randomly divided into a few of groups (four mice per group), and a graded dose of each bacterial liquid was separately administrated to mice in each test group at one time per day. Moreover, administration of test drug was done one day ahead of schedule, and toxic substances were not eliminated until 0.5 h after administration on the second day. The death status of mice within 14 days was observed, to determine the dosage used in the formal experiment.
KM mice (grade SPF), half male and half female, weighing 18-22 g were randomly divided into […] groups with ten mice for each group, i.e. the group receiving vancomycin hydrochloride for injection; the groups receiving high, medium, and low doses of patchoulol; blank group; model group; and control group receiving gastric mucin. All of the mice were administrated by intraperitoneal injection once a day. The mice were administrated one day in advance and then attacked after 0.5h of administration on the second day, i.e. intraperitoneally injected with methicillin-resistant Staphylococcus aureus liquid containing 5% gastric mucin. Amongst, mice in the model group were given normal saline instead of test drug; mice in the blank group were not given drugs and attacked; mice in the gastric mucin control group were not given test drug, but only injected with 5% gastric mucin without bacteria.
The death status of mice within 14 days after injection of bacteria was observed, and its survival rate was recorded.

[4] = system: Staphylococcus epidermidis MSSE; test: in vitro bacteriostatic activity, agar dilution MIC; format: cell-based; conditions: Staphylococcus epidermidis
[5] = system: Staphylococcus aureus MSSA; test: as above; format: cell-based
[6] = system: Staphylococcus epidermidis MRSE; test: as above; format: cell-based

Question: What does the source list for `CN[C@H](CC(C)C)C(=O)N[C@H]1C(=O)N[C@@H](CC(N)=O)C(=O)N[C@H]2C(=O)N[C@H]3C(=O)N[C@H](C(=O)N[C@H](C(=O)O)c4cc(O)cc(O)c4-c4cc3ccc4O)[C@H](O)c3ccc(c(Cl)c3)Oc3cc2cc(c3O[C@@H]2O[C@H](CO)[C@@H](O)[C@H](O)[C@H]2O[C@H]2C[C@](C)(N)[C@H](O)[C@H](C)O2)Oc2ccc(cc2Cl)[C@H]1O` [vancomycin]?
Answer: MIC [1]: 1 µg/mL (≈ 0.69 µM); MIC (Staphylococcus aureus): 0.5 µg/mL (≈ 0.345 µM); MIC (Enterococcus faecalis; ATCC29212, Enterococcus faecalis ATCC 29212): 2 µg/mL (≈ 1.38 µM); MIC (Enterococcus faecalis; ATCC51299, Enterococcus faecalis (high endurance) ATCC 51299): 2 µg/mL (≈ 1.38 µM); MIC (Enterococcus faecalis; Enterococcus faecalis 12-11): > 128 µg/mL; MIC (Enterococcus faecalis; Enterococcus faecalis 12-12): 1 µg/mL (≈ 0.69 µM); MIC (Enterococcus faecalis; Enterococcus faecalis 12-13): 2 µg/mL (≈ 1.38 µM); MIC (Enterococcus faecalis; Enterococcus faecalis 12-14): 1 µg/mL (≈ 0.69 µM); MIC (Enterococcus faecalis; Enterococcus faecalis 12-17): 2 µg/mL (≈ 1.38 µM); MIC (Enterococcus faecalis; Enterococcus faecalis 12-18): 1 µg/mL (≈ 0.69 µM); MIC (Enterococcus faecalis; Enterococcus faecalis 12-19): 2 µg/mL (≈ 1.38 µM); MIC (Enterococcus faecalis; Enterococcus faecalis 12-20): 2 µg/mL (≈ 1.38 µM); MIC (Enterococcus faecalis; Enterococcus faecalis 12-21): 1 µg/mL (≈ 0.69 µM); MIC (Enterococcus faecalis; Enterococcus faecalis 12-22): 1 µg/mL (≈ 0.69 µM); MIC (Enterococcus faecium; ATCC33186, Enterococcus faecium ATCC 33186): 1 µg/mL (≈ 0.69 µM); MIC (Enterococcus faecium; Enterococcus faecium 12-7): 0.5 µg/mL (≈ 0.345 µM); MIC (Enterococcus faecium; Enterococcus faecium 12-8): 0.5 µg/mL (≈ 0.345 µM); MIC (Enterococcus faecium; Enterococcus faecium 12-9): 1 µg/mL (≈ 0.69 µM); MIC (Enterococcus faecium; Enterococcus faecium 12-10): 4 µg/mL (≈ 2.76 µM); MIC (Enterococcus faecium; Enterococcus faecium 12-11): 0.5 µg/mL (≈ 0.345 µM); MIC (Enterococcus faecium; Enterococcus faecium 12-12): 1 µg/mL (≈ 0.69 µM); MIC (Enterococcus faecium; Enterococcus faecium 12-13): 4 µg/mL (≈ 2.76 µM); MIC (Enterococcus faecium; Enterococcus faecium 12-14): 0.5 µg/mL (≈ 0.345 µM); MIC (Enterococcus faecium; Enterococcus faecium 12-15): 1 µg/mL (≈ 0.69 µM); MIC (Enterococcus faecium; Enterococcus faecium 12-16): 1 µg/mL (≈ 0.69 µM); MIC ([2]; ATCC 43300 / MRSA, Methicillin-resistant Staphylococcus aureus ATCC 43300): 1 µg/mL (≈ 0.69 µM); MIC ([2]; MRSA, Staphylococcus aureus MRSA 12-11): 2 µg/mL (≈ 1.38 µM); MIC ([2]; MRSA, Staphylococcus aureus MRSA 12-12): 1 µg/mL (≈ 0.69 µM); MIC ([2]; MRSA, Staphylococcus aureus MRSA 12-13): 1 µg/mL (≈ 0.69 µM); MIC ([2]; MRSA, Staphylococcus aureus MRSA 12-14): 1 µg/mL (≈ 0.69 µM); MIC ([2]; MRSA, Staphylococcus aureus MRSA 12-15): 1 µg/mL (≈ 0.69 µM); MIC ([2]; MRSA, Staphylococcus aureus MRSA 12-16): 2 µg/mL (≈ 1.38 µM); MIC ([2]; MRSA, Staphylococcus aureus MRSA 12-17): 1 µg/mL (≈ 0.69 µM); MIC ([2]; MRSA, Staphylococcus aureus MRSA 12-18): 1 µg/mL (≈ 0.69 µM); MIC ([2]; MRSA, Staphylococcus aureus MRSA 12-19): 2 µg/mL (≈ 1.38 µM); MIC ([2]; MRSA, Staphylococcus aureus MRSA 12-20): 1 µg/mL (≈ 0.69 µM); Survival number ([3]; 10 animals): 10; Survial rate (%) [3]: 100%; MIC ([4]; Staphylococcus epidermidis MSSE 12-11): 1 µg/mL (≈ 0.69 µM); MIC ([4]; Staphylococcus epidermidis MSSE 12-12): 2 µg/mL (≈ 1.38 µM); MIC ([4]; Staphylococcus epidermidis MSSE 12-13): 1 µg/mL (≈ 0.69 µM); MIC ([4]; Staphylococcus epidermidis MSSE 12-14): 2 µg/mL (≈ 1.38 µM); MIC ([4]; Staphylococcus epidermidis MSSE 12-15): 2 µg/mL (≈ 1.38 µM); MIC ([4]; Staphylococcus epidermidis MSSE 12-16): 0.5 µg/mL (≈ 0.345 µM); MIC ([4]; Staphylococcus epidermidis MSSE 12-17): 0.5 µg/mL (≈ 0.345 µM); MIC ([4]; Staphylococcus epidermidis MSSE 12-18): 0.25 µg/mL (≈ 0.173 µM); MIC ([4]; Staphylococcus epidermidis MSSE 12-19): 1 µg/mL (≈ 0.69 µM); MIC ([4]; Staphylococcus epidermidis MSSE 12-20): 1 µg/mL (≈ 0.69 µM); MIC ([5]; Staphylococcus aureus MSSA 12-11): 1 µg/mL (≈ 0.69 µM); MIC ([5]; Staphylococcus aureus MSSA 12-13): 1 µg/mL (≈ 0.69 µM); MIC ([5]; Staphylococcus aureus MSSA 12-14): 1 µg/mL (≈ 0.69 µM); MIC ([5]; Staphylococcus aureus MSSA 12-15): 1 µg/mL (≈ 0.69 µM); MIC ([5]; Staphylococcus aureus MSSA 12-16): 1 µg/mL (≈ 0.69 µM); MIC ([5]; Staphylococcus aureus MSSA 12-17): 1 µg/mL (≈ 0.69 µM); MIC ([5]; Staphylococcus aureus MSSA 12-18): 1 µg/mL (≈ 0.69 µM); MIC ([5]; Staphylococcus aureus MSSA 12-19): 1 µg/mL (≈ 0.69 µM); MIC ([5]; Staphylococcus aureus MSSA 12-21): 1 µg/mL (≈ 0.69 µM); MIC ([5]; Staphylococcus aureus, MSSA): 1 µg/mL (≈ 0.69 µM); MIC ([6]; Staphylococcus epidermidis MRSE 12-11): 8 µg/mL (≈ 5.52 µM); MIC ([6]; Staphylococcus epidermidis MRSE 12-12): 0.5 µg/mL (≈ 0.345 µM); MIC ([6]; Staphylococcus epidermidis MRSE 12-15): 2 µg/mL (≈ 1.38 µM); MIC ([6]; Staphylococcus epidermidis MRSE 12-16): 2 µg/mL (≈ 1.38 µM); MIC ([6]; Staphylococcus epidermidis MRSE 12-17): 2 µg/mL (≈ 1.38 µM); MIC ([6]; Staphylococcus epidermidis MRSE 12-18): 2 µg/mL (≈ 1.38 µM); MIC ([6]; Staphylococcus epidermidis MRSE 12-19): 2 µg/mL (≈ 1.38 µM); MIC ([6]; Staphylococcus epidermidis MRSE 12-20): 2 µg/mL (≈ 1.38 µM); MIC ([6]; Staphylococcus epidermidis MRSE 12-21): 2 µg/mL (≈ 1.38 µM); MIC ([6]; Staphylococcus epidermidis MRSE 12-22): 1 µg/mL (≈ 0.69 µM)

Reference: patent EP2826473A1, “NOVEL USE OF PATCHOULOL” (Chengdu Huasun Group Inc., Ltd., priority 2012, dated 2013)
